Results reported in ChEMBL document CHEMBL4665836, “Overcoming β-Lactam resistance in Pseudomonas aeruginosa using non-canonical tobramycin-based antibiotic adjuvants” (2020).

What was measured:
Type in all cases: functional
[1] = test system: Pseudomonas aeruginosa; assay: Potentiation of aztreonam-induced antibacterial activity against carbapenem-resistant Pseudomonas aeruginosa 108590 clinical isolate assessed as fold reduction in aztreonam MIC at 8 uM in presence of beta-lactamase inhibitor, avi-bactam
[2] = test system: Pseudomonas aeruginosa; assay: Potentiation of aztreonam-induced antibacterial activity against carbapenem-resistant Pseudomonas aeruginosa 109084 clinical isolate assessed as fold reduction in aztreonam MIC at 8 uM in presence of beta-lactamase inhibitor, avi-bactam
[3] = test system: Pseudomonas aeruginosa; assay: Potentiation of imipenem-induced antibacterial activity against carbapenem and colistin-resistant Pseudomonas aeruginosa 101243 clinical isolate assessed as imipenem MIC at 8 uM by checkerboard assay (reference value: 8 ug/ml)
[4] = test system: Pseudomonas aeruginosa; assay: Potentiation of imipenem-induced antibacterial activity against carbapenem-resistant Pseudomonas aeruginosa 101885 clinical isolate assessed as imipenem MIC at 8 uM by checkerboard assay (reference value: 4 ug/ml)
[5] = test system: Pseudomonas aeruginosa; assay: Potentiation of aztreonam-induced antibacterial activity against carbapenem-resistant Pseudomonas aeruginosa 108590 clinical isolate assessed as aztreonam MIC at 8 uM by checkerboard assay (reference value: 32 ug/ml)
[6] = test system: Pseudomonas aeruginosa; assay: Potentiation of aztreonam-induced antibacterial activity against carbapenem and colistin-resistant Pseudomonas aeruginosa 101243 clinical isolate assessed as aztreonam MIC at 8 uM by checkerboard assay (reference value: 32 ug/ml)
[7] = test system: Pseudomonas aeruginosa; assay: Potentiation of aztreonam-induced antibacterial activity against carbapenem-resistant Pseudomonas aeruginosa 259-96918 clinical isolate expressing metallo-beta-lactamase assessed as aztreonam MIC at 8 uM by checkerboard assay (reference value: 32 ug/ml)
[8] = test system: Pseudomonas aeruginosa; assay: Potentiation of piperacillin-induced antibacterial activity against wild type Pseudomonas aeruginosa PAO1 assessed as piperacillin MIC at 8 uM by checkerboard assay (reference value: 8 ug/ml)
[9] = test system: Pseudomonas aeruginosa; assay: Potentiation of ceftazidime-induced antibacterial activity against wild type Pseudomonas aeruginosa PAO1 assessed as fold reduction in ceftazidime MIC at 8 uM
[10] = test system: Pseudomonas aeruginosa; assay: Potentiation of ceftazidime-induced antibacterial activity against carbapenem-resistant Pseudomonas aeruginosa PAO750 harboring mexAB-oprM/mexCD-oprJ/mexEF-oprN/mexJK/mexXY/opmH efflux deficient mutant assessed as ceftazidime MIC at 8.7 uM by checkerboard assay (reference value: 0.5 ug/ml)
[11] = test system: Pseudomonas aeruginosa; assay: Potentiation of ceftazidime-induced antibacterial activity against carbapenem-resistant Pseudomonas aeruginosa PAO200 harboring and mexAB-oprM efflux deficient mutant assessed as ceftazidime MIC at 8.7 uM by checkerboard assay (reference value: 1 ug/ml)
[12] = test system: Pseudomonas aeruginosa; assay: Potentiation of ceftazidime-induced antibacterial activity against carbapenem-resistant Pseudomonas aeruginosa 108590 clinical isolate assessed as ceftazidime MIC at 8.7 uM by checkerboard assay (reference value: 32 ug/ml)
[13] = test system: Pseudomonas aeruginosa; assay: Potentiation of ceftazidime-induced antibacterial activity against carbapenem-resistant Pseudomonas aeruginosa 107092 clinical isolate assessed as ceftazidime MIC at 8.7 uM by checkerboard assay (reference value: 128 ug/ml)
[14] = test system: Pseudomonas aeruginosa; assay: Potentiation of ceftazidime-induced antibacterial activity against carbapenem-resistant Pseudomonas aeruginosa 88949 clinical isolate assessed as ceftazidime MIC at 8.7 uM by checkerboard assay (reference value: 64 ug/ml)
[15] = test system: Pseudomonas aeruginosa; assay: Potentiation of ceftazidime-induced antibacterial activity against carbapenem-resistant Pseudomonas aeruginosa 86052 clinical isolate assessed as ceftazidime MIC at 8.7 uM by checkerboard assay (reference value: 64 ug/ml)
[16] = test system: Pseudomonas aeruginosa; assay: Potentiation of ceftazidime-induced antibacterial activity against carbapenem and colistin-resistant Pseudomonas aeruginosa 101243 clinical isolate assessed as ceftazidime MIC at 8.7 uM by checkerboard assay (reference value: 64 ug/ml)
[17] = test system: Pseudomonas aeruginosa; assay: Potentiation of ceftazidime-induced antibacterial activity against carbapenem-resistant Pseudomonas aeruginosa 101885 clinical isolate assessed as ceftazidime MIC at 8.7 uM by checkerboard assay (reference value: 8 ug/ml)
[18] = test system: Pseudomonas aeruginosa; assay: Potentiation of ceftazidime-induced antibacterial activity against carbapenem-resistant Pseudomonas aeruginosa 262-101856 clinical isolate assessed as ceftazidime MIC at 8.7 uM by checkerboard assay (reference value: 16 ug/ml)
[19] = test system: Pseudomonas aeruginosa; assay: Potentiation of ceftazidime-induced antibacterial activity against wild-type Pseudomonas aeruginosa PAO1 assessed as ceftazidime MIC at 8.7 uM by checkerboard assay (reference value: 2 ug/ml)
[20] = test system: Pseudomonas aeruginosa; assay: Potentiation of aztreonam-induced antibacterial activity against carbapenem-resistant Pseudomonas aeruginosa PAO750 harboring and mexAB-oprM/mexCD-oprJ/mexEF-oprN/mexJK/mexXY/opmH efflux deficient mutant assessed as aztreonam MIC at 8.7 uM by checkerboard assay (reference value: 0.5 ug/ml)
[21] = test system: Pseudomonas aeruginosa; assay: Potentiation of aztreonam-induced antibacterial activity against carbapenem-resistant Pseudomonas aeruginosa PAO200 harboring and mexAB-oprM efflux deficient mutant assessed as aztreonam MIC at 8.7 uM by checkerboard assay (reference value: 0.25 ug/ml)
[22] = test system: Pseudomonas aeruginosa; assay: Potentiation of aztreonam-induced antibacterial activity against carbapenem-resistant Pseudomonas aeruginosa 109084 clinical isolate assessed as aztreonam MIC at 8.7 uM by checkerboard assay (reference value: 64 ug/ml)
[23] = test system: Pseudomonas aeruginosa; assay: Potentiation of aztreonam-induced antibacterial activity against carbapenem-resistant Pseudomonas aeruginosa 107092 clinical isolate assessed as aztreonam MIC at 8.7 uM by checkerboard assay (reference value: 64 ug/ml)
[24] = test system: Pseudomonas aeruginosa; assay: Potentiation of aztreonam-induced antibacterial activity against carbapenem-resistant Pseudomonas aeruginosa 88949 clinical isolate assessed as aztreonam MIC at 8.7 uM by checkerboard assay (reference value: 32 ug/ml)
[25] = test system: Pseudomonas aeruginosa; assay: Potentiation of aztreonam-induced antibacterial activity against carbapenem-resistant Pseudomonas aeruginosa 86052 clinical isolate assessed as aztreonam MIC at 8.7 uM by checkerboard assay (reference value: 64 ug/ml)
[26] = test system: Pseudomonas aeruginosa; assay: Potentiation of aztreonam-induced antibacterial activity against carbapenem and colistin-resistant Pseudomonas aeruginosa 114228 clinical isolate assessed as aztreonam MIC at 8.7 uM by checkerboard assay (reference value: 32 ug/ml)
[27] = test system: Pseudomonas aeruginosa; assay: Potentiation of aztreonam-induced antibacterial activity against carbapenem-resistant Pseudomonas aeruginosa 101885 clinical isolate assessed as aztreonam MIC at 8.7 uM by checkerboard assay (reference value: 16 ug/ml)
[28] = test system: Pseudomonas aeruginosa; assay: Potentiation of aztreonam-induced antibacterial activity against carbapenem-resistant Pseudomonas aeruginosa 100036 clinical isolate assessed as aztreonam MIC at 8.7 uM by checkerboard assay (reference value: 16 ug/ml)
[29] = test system: Pseudomonas aeruginosa; assay: Potentiation of aztreonam-induced antibacterial activity against carbapenem and colistin-resistant Pseudomonas aeruginosa 91433 clinical isolate assessed as aztreonam MIC at 8.7 uM by checkerboard assay (reference value: 16 ug/ml)
[30] = test system: Pseudomonas aeruginosa; assay: Potentiation of aztreonam-induced antibacterial activity against carbapenem-resistant Pseudomonas aeruginosa 262-101856 clinical isolate assessed as aztreonam MIC at 8.7 uM by checkerboard assay (reference value: 32 ug/ml)
[31] = test system: Pseudomonas aeruginosa; assay: Potentiation of aztreonam-induced antibacterial activity against wild-type Pseudomonas aeruginosa PAO1 assessed as aztreonam MIC at 8.7 uM by checkerboard assay (reference value: 4 ug/ml)

Cl.Cl.Cl.Cl.Cl.Cl.NC[C@H]1O[C@H](O[C@H]2[C@H](OCCCCCCCCCCCCN3CCN(c4cc5c(cc4F)c(=O)c(C(=O)O)cn5C4CC4)CC3)[C@@H](O[C@H]3O[C@H](CO)[C@@H](O)[C@H](N)[C@H]3O)[C@H](N)C[C@@H]2N)[C@H](N)C[C@@H]1O
fold change (FC) [1]: 16
fold change (FC) [2]: 16
MIC [3]: 2 µg/mL
MIC [4]: 2 µg/mL
MIC [5]: 0.5 µg/mL
MIC [6]: 4 µg/mL
MIC [7]: 8 µg/mL
MIC [8]: 2 µg/mL
fold change (FC) [9]: 2

NC[C@H]1O[C@H](O[C@H]2[C@H](OCCCCCCCCN3CCCNCCNCCCNCC3)[C@@H](O[C@H]3O[C@H](CO)[C@@H](O)[C@H](N)[C@H]3O)[C@H](N)C[C@@H]2N)[C@H](N)C[C@@H]1O.O=C(O)C(F)(F)F.O=C(O)C(F)(F)F.O=C(O)C(F)(F)F.O=C(O)C(F)(F)F.O=C(O)C(F)(F)F.O=C(O)C(F)(F)F.O=C(O)C(F)(F)F.O=C(O)C(F)(F)F.O=C(O)C(F)(F)F
fold change (FC) [1]: 16
fold change (FC) [2]: 16
MIC [3]: 8 µg/mL
MIC [4]: 2 µg/mL
MIC [10]: 0.06 µg/mL
MIC [11]: 0.06 µg/mL
MIC [12]: 8 µg/mL
MIC [13]: 32 µg/mL
MIC [14]: 16 µg/mL
MIC [15]: 64 µg/mL
MIC [16]: 8 µg/mL
MIC [17]: 1 µg/mL
MIC [18]: 4 µg/mL
MIC [19]: 0.25 µg/mL
MIC [20]: 0.03 µg/mL
MIC [21]: 0.02 µg/mL
MIC [22]: 8 µg/mL
MIC [23]: 16 µg/mL
MIC [24]: 16 µg/mL
MIC [25]: 16 µg/mL
MIC [26]: 4 µg/mL
MIC [27]: 0.5 µg/mL
MIC [28]: 2 µg/mL
MIC [29]: 16 µg/mL
MIC [30]: 8 µg/mL
MIC [31]: 0.25 µg/mL
MIC [8]: 2 µg/mL
fold change (FC) [9]: 2

NC[C@H]1O[C@H](O[C@H]2[C@H](OCCCCCCCCN3CCCNCCNCCCNCC3)[C@@H](O)[C@H](N)C[C@@H]2N)[C@H](N)C[C@@H]1O.O=C(O)C(F)(F)F.O=C(O)C(F)(F)F.O=C(O)C(F)(F)F.O=C(O)C(F)(F)F.O=C(O)C(F)(F)F.O=C(O)C(F)(F)F.O=C(O)C(F)(F)F.O=C(O)C(F)(F)F
fold change (FC) [1]: 16
fold change (FC) [2]: 16
MIC [3]: 8 µg/mL
MIC [4]: 2 µg/mL
MIC [5]: 8 µg/mL
MIC [6]: 2 µg/mL
MIC [7]: 8 µg/mL
MIC [8]: 2 µg/mL
fold change (FC) [9]: 2

Cl.Cl.Cl.Cl.Cl.NC[C@H]1O[C@H](O[C@H]2[C@H](OCCCCCCCCCCCCN3CCN(c4cc5c(cc4F)c(=O)c(C(=O)O)cn5C4CC4)CC3)[C@@H](O)[C@H](N)C[C@@H]2N)[C@H](N)C[C@@H]1O
fold change (FC) [1]: 16
fold change (FC) [2]: 16
MIC [3]: 4 µg/mL
MIC [4]: 2 µg/mL
MIC [5]: 0.13 µg/mL
MIC [6]: 0.25 µg/mL
MIC [7]: 8 µg/mL
MIC [8]: 2 µg/mL
fold change (FC) [9]: 2

NC[C@H]1O[C@H](O[C@H]2[C@H](OCCCCc3cn(CCCCO[C@@H]4[C@@H](O[C@H]5O[C@H](CO)[C@@H](O)[C@H](N)[C@H]5O)[C@H](N)C[C@H](N)[C@H]4O[C@H]4O[C@H](CN)[C@@H](O)C[C@H]4N)nn3)[C@@H](O[C@H]3O[C@H](CO)[C@@H](O)[C@H](N)[C@H]3O)[C@H](N)C[C@@H]2N)[C@H](N)C[C@@H]1O.O=C(O)C(F)(F)F.O=C(O)C(F)(F)F.O=C(O)C(F)(F)F.O=C(O)C(F)(F)F.O=C(O)C(F)(F)F.O=C(O)C(F)(F)F.O=C(O)C(F)(F)F.O=C(O)C(F)(F)F.O=C(O)C(F)(F)F.O=C(O)C(F)(F)F
fold change (FC) [1]: 16
fold change (FC) [2]: 16
MIC [3]: 8 µg/mL
MIC [4]: 4 µg/mL
MIC [5]: 8 µg/mL
MIC [6]: 16 µg/mL
MIC [7]: 8 µg/mL
MIC [8]: 0.5 µg/mL
fold change (FC) [9]: 2

NC[C@H]1O[C@H](O[C@H]2[C@H](OCCCCc3cn(CCCCO[C@@H]4[C@@H](O)[C@H](N)C[C@H](N)[C@H]4O[C@H]4O[C@H](CN)[C@@H](O)C[C@H]4N)nn3)[C@@H](O)[C@H](N)C[C@@H]2N)[C@H](N)C[C@@H]1O.O=C(O)C(F)(F)F.O=C(O)C(F)(F)F.O=C(O)C(F)(F)F.O=C(O)C(F)(F)F.O=C(O)C(F)(F)F.O=C(O)C(F)(F)F.O=C(O)C(F)(F)F.O=C(O)C(F)(F)F
fold change (FC) [1]: 16
fold change (FC) [2]: 16
MIC [3]: 8 µg/mL
MIC [4]: 4 µg/mL
MIC [5]: 16 µg/mL
MIC [6]: 8 µg/mL
MIC [7]: 8 µg/mL
MIC [8]: 8 µg/mL
fold change (FC) [9]: 2

N=C(N)NC[C@H]1O[C@H](O[C@H]2[C@H](OCCCCCCCCCCCCN3CCN(c4cc5c(cc4F)c(=O)c(C(=O)O)cn5C4CC4)CC3)[C@@H](O[C@H]3O[C@H](CO)[C@@H](O)[C@H](NC(=N)N)[C@H]3O)[C@H](NC(=N)N)C[C@@H]2NC(=N)N)[C@H](NC(=N)N)C[C@@H]1O.O=C(O)C(F)(F)F.O=C(O)C(F)(F)F.O=C(O)C(F)(F)F.O=C(O)C(F)(F)F.O=C(O)C(F)(F)F.O=C(O)C(F)(F)F
fold change (FC) [1]: 16
fold change (FC) [2]: 16
MIC [3]: 4 µg/mL
MIC [4]: 2 µg/mL
MIC [5]: 2 µg/mL
MIC [6]: 4 µg/mL
MIC [7]: 32 µg/mL
MIC [8]: 8 µg/mL
fold change (FC) [9]: 2
